Experiments:
Env-elicited syncytia = assay type: cell-based; conditions: SN50 20 µM, cyclic pifithrin-α 10 µM, added at the beginning of co-culture; Fig. 7D
Procedure: HeLa/U937 cell co-cultures were performed at different ratios (6). U937 or Jurkat cells were cultured with recombinant gp120 protein (500 ng/ml).

Jurkat cells = test: Apoptosis and Puma induction by recombinant gp120 protein in Jurkat cells; assay type: cell-based; conditions: four days, gp120 500 ng/ml, cyclic pifithrin-α 10 µM, Fig. 8E
Procedure: Figure 8D. Induction of Puma by recombinant gp120 protein in Jurkat cells (as in figure 8B).
Figure 8E. Effect of cyclic pifithrin-alpha. Jurkat cells were treated for four days with gp120 protein (500 ng/ml) and or cyclic pifithrin-α (10 µM), followed by determination of Puma expression.
HeLa cells stably transfected with the Env gene of HIV-1 LAI (HeLa Env) and HeLa cells transfected with CD4 (HeLa CD4) were cocultured at a 1:1 ratio (6), in DMEM medium supplemented with 10 % FCS, L-glutamine, in the absence or presence of roscovitin (1 µM), rapamycin (1 µM, Sigma), cyclic pifithrin-α (10 µM), MG132 (5 µM, Calbiochem), the NF-κB-inhibitory peptide SN50, or its negative control SN50M (20 µM, Biomol). HeLa/U937 cell co-cultures were performed at different ratios (6). U937 or Jurkat cells were cultured with recombinant gp120 protein (500 ng/ml).

Env-induced syncytia = conditions: cited from earlier work

SMILES: Cc1ccc(-c2cn3c4c(sc3n2)CCCC4)cc1 [pifithrin-α, cyclic pifithrin-α]
- activation of Bax and Bak (Env-elicited syncytia): inhibited
- gp120-induced apoptosis and Puma expression (Jurkat cells): strongly inhibited
- syncytium-dependent cell death (Env-induced syncytia; reference (5)): blocked
- Env-induced upregulation of Bax (Env-induced syncytia; references (5, 7)): prevents
- syncytial cell death (Env-induced syncytia; references (5, 7)): retards
